Experimental data taken from US20100311036A1, “Methods for Augmentation of Cell Cryopreservation” (UNIVERSITY OF SOUTH CAROLINA, priority 2009, published 2010).

Legend:
[1] = tested on: R1 mouse ES cells; experiment: attachment efficiency (1 day viability) post cryopreservation; format: cell-based; conditions: post ultrafast vitrification in quartz microcapillary; 2 M PROH and/or 0.5 M extracellular trehalose; day 1, relative to non-frozen control
Experimental: (§1) A novel ultrafast cooling (cooling rate >2×10^5° C./min) technique for ice-free cryopreservation (i.e., ultrafast vitrification) of mouse ES cells has been recently developed using quartz microcapillaries (180 μm in inner diameter and 10 μm in wall thickness in the working part). A comparison of the quartz microcapillary and the traditional French type plastic straw used for cell vitrification is given in FIG. 2. […]
(§2) The immediate cell viability post cryopreservation represented by membrane integrity was assessed using the standard live/dead assay kit of two fluorescent probes: calcein AM and ethidium homodimer (Invitrogen, Carlsbad, Calif.). Cells that excluded ethidium homodimer and retained the fluorescent calcein were counted as being viable. To check cell viability more than one day post cryopreservation, cell attachment evaluated at day 1 and proliferation/growth evaluated over a three-day observation period were also studied. […] The number of cells in at least 20 randomly selected representative fields under a 10× objective was counted every day for all the samples. Proliferation was assessed by normalizing the number of cells at day 3 and day 2 to that at day 1. Attachment efficiency (i.e., viability at day 1) was calculated as the ratio of the number of cells of a cryopreserved sample to that of the control non-frozen sample at day 1. […]

[2] = tested on: R1 mouse ES cells; experiment: immediate cell viability post cryopreservation (membrane integrity, live/dead assay); format: cell-based; conditions: post ultrafast vitrification in quartz microcapillary; 2 M PROH and/or 0.5 M extracellular trehalose; within 3 hr at day 0
Experimental: as §1, §2

Row | Compound | 1 day viability (attachment efficiency) [1] | immediate cell viability [2]
1 | CC(O)CO (stereo not shown) [1,2-propanediol] | ~12% | ~20%
2 | OC[C@H]1O[C@H](O[C@H]2O[C@H](CO)[C@@H](O)[C@H](O)[C@H]2O)[C@H](O)[C@@H](O)[C@@H]1O [trehalose] | < 2% | about 65%
